Results published in patent US10829527B2, “Conjugates of islet neogenesis peptides and analogs, and methods thereof” (SHENZHEN HIGHTIDE BIOPHARMACEUTICAL, LTD., priority 2016, dated 2020).

Experiments:
[1] = test system: STZ induced diabetic mice; assay: Blood glucose in streptozotocin (STZ) induced diabetic mice model; assay type: in vivo, C57BL/6J mice; details: 250 nM/kg, day 8 of treatment
Method: (§1) After acclimatization in the animal facility for one week, 6-8 weeks old C57BL/6J mice were administered high dose STZ at 150 mg/kg in citrate buffer to establish a T1D animal model. Mice with blood glucose greater than 16.7 mmol/L at 10 days post last STZ injection were included in the study. These mice were then treated with INGAP-PP or GLP-1 or Peptide 2 at the dose of 250 nM/kg for 10 days before sacrifices. One additional group of diabetic mice were administered with saline as model control groups. Blood glucose levels were measured on day 8. Ten days post the last dosing of test agents, an oral glucose tolerance test (OGTT) was performed in 6 hours fasted animals. Blood samples obtained from the tail for glucose determination were detected with an ACCU-CHEK™ glucometer (Roche, ACCU-CHEK® Performa)
(§2) The blood glucose (BG, mM) present were measured on day 8 of treatment. The area under curve (AUC) of glucose (T0˜120 min) measured in an oral glucose tolerance test (OGTT) on day 10 of treatment.

[2] = test system: pancreatic islets; assay: Glucose-stimulated insulin secretion (GSIS) of isolated islets; assay type: cell-based, C57BL/6J mice; details: for Insulin Secretion: 16.7 mM glucose + 10 nM peptide, groups of 5 islets, 60 min incubation; for Insulin release compared with islets cultured without the addition of peptides: 16.7 mM glucose, 10 nM peptide, result in words
Method: The pancreases were procured from male adult C57BL/6J mice. After 7 days acclimation, the animals were sacrificed by cervical dislocation and the entire pancreas was removed and digested with collagenase to isolate islets. After digestion, islets were maintained at 37° C. in RPMI 1640 (Carlsbad Calif., USA) pH 7.4, containing 10% (v/v) fetal calf serum, 1% penicillin/streptomycin, and 10 mM glucose in a humid atmosphere (5% CO2/95% O2), without the addition of any compound (control), or with the addition of 10 nM glucagon like peptide-1 (GLP-1); or 10 nM INGAP-PP; or 10 nM Peptide 1, Peptide 2 or Peptide 3, as summarized in Table 5 below.
Cultured islets were rinsed in Krebs-Ringer bicarbonate buffer (KRB), pH 7.4, previously gassed with a mixture of CO2/O2 (5/95%), and pre-incubated in 1.0 mL of KRB containing 0.5% (w/v) BSA and 2.8 mM glucose at 37° C. for 45 min. After this period, groups of 5 islets were incubated in 0.6 mL KRB with the addition of 2.8 or 16.7 mM glucose, with or without the addition of peptides for 60 min. At the end of the incubation period, aliquots of the medium were collected for insulin quantitation.

[3] = test system: STZ induced diabetic mice; assay: Oral glucose tolerance test (OGTT) in STZ induced diabetic mice model; assay type: in vivo, C57BL/6J mice; details: 250 nM/kg, glucose AUC T0~120 min, day 10 of treatment, 6 hours fasted
Method: as §1, §2

Row | Substance | Blood Glucose (Day 8) [1] [mM] | Insulin Secretion [2] [ng/islet/hour] | Insulin release compared with islets cultured without the addition of peptides [2] | AUC of OGTT (Day 10) [3]
1 | H-IGLHDPSHGTLPNGS-OH (also: D-Isoleucine at 1) [INGAP-PP] | 25.9 ± 9.1 | 2.5 ± 1.0 | no stimulation | 3207.6 ± 801.5
2 | glucagon like peptide-1 [GLP-1] | 22.1 ± 6.8 | 5.4 ± 2.1 | significantly more insulin | 3054.7 ± 728.9
